These results are taken from patent publication US5679648A, “Methods for the treatment and prevention of fungal infections by administration of 3'-deoxypurine nucleosides” (The University Hospital, priority 1994, dated 1997).

Like-named read-outs stand apart in the source and are kept apart here.

Data set [1] has as its system Candida albicans. Put plainly: Time to reach LD50 in Candida albicans infected mice. The following applies: ICR mice, 10^6 cfu C. albicans; 10 days i.p.: 3'-deoxyadenosine 1.5, deoxycoformycin 0.4, amphotericin B 1.0 mg/kg/day; control 6. It counts as in vivo. Here is the method:
Halen Sprague Dawley ICR mice were injected with approximately 10^6 cfu Candida albicans and treated for 10 days with the following agents: 3'-deoxyadenosine (Sigma Chemical; St. Louis, Mo.) at 1.5 mg/kg/day i.p., deoxycoformycin (Sigma Chemical; St. Louis, Mo.) at 0.4 mg/kg/day i.p., amphotericin B (Sigma Chemical; St. Louis, Mo.) at 1.0 mg/kg/day i.p. Time in days to reach LD50 is shown in Table 4.

Data set [2] has as its system Candida albicans. Put plainly: Mortality in Candida albicans infected mice. Format: in vivo. As to conditions: ICR mice, 10^6 cfu C. albicans; for Survival After 25 Days: 10 days i.p.: 3'-deoxyadenosine 1.5, deoxycoformycin 0.4, amphotericin B 1.0 mg/kg/day, n=10, control 40%; for Survival After 15 Days: second experiment, 10 days i.p., same doses, n=8, control 0%. On the procedure: Halen Sprague Dawley ICR mice were injected is with approximately 10^6 cfu of Candida albicans. Twenty-four hours after injection, mice were treated for 10 days with the indicated agents: 3'-deoxyadenosine (Sigma Chemical; St. Louis, Mo.) at 1.5 mg/kg/day i.p., deoxycoformycin (Sigma Chemical; St. Louis, Mo.) at 0.4 mg/kg/day i.p., amphotericin B (Sigma Chemical; St. Louis, Mo.) at 1.0 mg/kg/day i.p. Survival after 25 days is shown in Tables 2 and 3.

The test system of another data set is C. neoformans. Put plainly: MIC of 3'-deoxynucleosides in cell cultures (microtiter plates, 24 hours). It counts as cell-based. The following applies: Cryptococcus neoformans. On the procedure: (§1) Cell cultures of various organisms were established in microtiter plates and maintained for a period of 24 hours after the addition of a 3'-deoxynucleoside (3'-dA, 3'-dG, 3'-dC, 3'-dU) (Calbiochem; San Diego, Calif.; Fluka Chemical; Ronkonkoma, N.Y.; Pharmacia Biotech; Piscataway, N.J.) or amphotericin B in μg/ml (Sigma Chemical; St. Louis, Mo.) as control.

The subject of the next data set is A. fumigatus. The description is as above. Format: cell-based. The following applies: Aspergillus fumigatus. On the procedure:
as §1

The test system of a further data set is C. tropicalis. The description is as above. Format: cell-based. The following applies: Candida tropicalis. On the procedure: as §1
In a further data set the test system is C. albicans. Described as above. Format: cell-based. As to conditions: Candida albicans. Here is the method: as §1
In the next data set the test system is Rhizopus. The description is as above. Format: cell-based. Here is the method:
as §1

In another data set the test system is protein kinase C (PK-C). The data set can be described thus: PK-C activity in TdT-positive and TdT-negative cell lines after exposure. Format: cell-based. On the procedure: (§2) Cell lines were maintained in FCS/DMEM (GIBCO/BRL; Grand Island, N.Y.) at 37° C. with 5% CO2 and treated with cordycepin, coformycin or cordycepin plus coformycin, or remain untreated as controls. […] Since apoptosis in normal TdT-positive thymocytes is stimulated by protein kinase A (PK-A) activity, and inhibited by protein kinase C (PK-C) activity, PK-A and PK-C activities were measured in TdT-positive and TdT-negative cell lines after exposure to cordycepin.

For another data set, the system named is protein kinase A (PK-A). Put plainly: PK-A activity in TdT-positive and TdT-negative cell lines after exposure. Format: cell-based. On the procedure:
as §2

For the next data set, the system named is HPB-ALL. Put plainly: Cytotoxicity to neoplastic cells in tissue culture. Format: cell-based. As to conditions: HPB-ALL (TdT-positive), in the presence of coformycin; read-out: cytotoxic IC50. On the procedure:
(§3) Cell lines were maintained in FCS/DMEM (GIBCO/BRL; Grand Island, N.Y.) at 37° C. with 5% CO2 and treated with cordycepin, coformycin or cordycepin plus coformycin, or remain untreated as controls. In the presence of coformycin, cordycepin was specifically cytotoxic at IC50 of less than 0.5 μM for the TdT-positive cells NALM-6, HPB-ALL, MOLT-4, CEM and 8402 cells. […] The earliest manifestations of cytotoxic damage by cordycepin in TdT (terminal deoxynudeotidyl tranferase)-positive cells was the emergence of classic features of apoptosis such as membrane blebbing, volume loss, chromatin clumping and inter-nucleosomal DNA digestion into 180 base pair (bp) multiples. In contrast, the cytotoxic damage seen when TdT-negative cells are exposed to high levels (greater than 5.0 μM) of cordycepin is associated with random DNA breakdown and necrosis. Since apoptosis in normal TdT-positive thymocytes is stimulated by protein kinase A (PK-A) activity, and inhibited by protein kinase C (PK-C) activity, PK-A and PK-C activities were measured in TdT-positive and TdT-negative cell lines after exposure to cordycepin.

For the next data set, the system named is CEM. Put plainly: Cytotoxicity to neoplastic cells in tissue culture. Format: cell-based. As to conditions: CEM (TdT-positive), in the presence of coformycin; read-out: cytotoxic IC50. Here is the method:
as §3

Another data set deals with NALM-6. The data set can be described thus: Cytotoxicity to neoplastic cells in tissue culture. It counts as cell-based. The following applies: NALM-6 (TdT-positive), in the presence of coformycin; read-out: cytotoxic IC50. Here is the method: as §3
The next data set concerns MOLT-4. The data set can be described thus: Cytotoxicity to neoplastic cells in tissue culture. It counts as cell-based. As to conditions: MOLT-4 (TdT-positive), in the presence of coformycin; read-out: cytotoxic IC50. Here is the method: as §3
A further data set deals with 8402 cells. Put plainly: Cytotoxicity to neoplastic cells in tissue culture. As to conditions: 8402 (TdT-positive), in the presence of coformycin; read-out: cytotoxic IC50. It counts as cell-based. Here is the method: as §3
Where [3] appears, read: C. neoformans, 24 hours, read-out: MIC.
[4] abbreviates: A. fumigatus, 24 hours, read-out: MIC.
The mark [5] stands for this setting: C. tropicalis, 24 hours, read-out: MIC.
[6] abbreviates: C. albicans, 24 hours, read-out: MIC.

As for `OC[C@H]1O[C@@H](n2cnc3c2NC=NC[C@H]3O)C[C@@H]1O` [deoxycoformycin], the “Days to Reach LD50” value in the data set on Candida albicans [1] is 5 days. For the same compound, in the data set with Candida albicans [2], the “Survival After 25 Days” value turned out to be 30% and the “Survival After 15 Days” value amounted to 25.0%.
As to `Nc1nc2c(ncn2[C@@H]2O[C@H](CO)C[C@H]2O)c(=O)[nH]1` [3'-dG], the MIC in the data set on C. neoformans (setting [3]) is over 20 µM; with A. fumigatus (setting [4]), over 20 µM; with C. tropicalis (setting [5]) it was over 20 µM; with C. albicans (setting [6]) it was over 20 µM; in the data set on Rhizopus (24 hours, read-out: MIC), over 20 µM.
Turning to `Nc1ncnc2c1ncn2[C@@H]1O[C@H](CO)C[C@H]1O` [3'-dA, 3'-deoxyadenosine], the PK-C activity change result in the data set with protein kinase C (PK-C) (TdT-negative cells) and in the data set with protein kinase C (PK-C) (TdT-positive cells) was “unchanged” in each case. The PK-A activity change entry with protein kinase A (PK-A) (TdT-negative cells) is “unchanged”. Besides, the PK-A activity increase with protein kinase A (PK-A) (TdT-positive cells, within 2 hours of exposure) was 8-10 fold. In addition, the MIC with C. neoformans (setting [3]) was 20 µM; in the data set with A. fumigatus (setting [4]), 5 µM; with C. tropicalis (setting [5]), 20 µM; in the data set with C. albicans (setting [6]) it was 20 µM; in the data set with Rhizopus (24 hours, read-out: MIC), over 20 µM. The “Days to Reach LD50” value in the data set on Candida albicans [1] is recorded as 9.5 days. In the data set on Candida albicans [2], the “Survival After 25 Days” value is 30%. Moreover, the “Survival After 15 Days” value in the data set on Candida albicans [2] stood at 37.5%. The IC50 in the data set with HPB-ALL, in the data set with CEM, with NALM-6, in the data set with MOLT-4 and in the data set on 8402 cells was under 500 nM each time.
As to `C[C@@H]1[C@H](O)[C@@H](C)/C=C/C=C/C=C/C=C/C=C/C=C/C=C/[C@H](O[C@@H]2O[C@H](C)[C@@H](O)[C@H](N)[C@@H]2O)C[C@@H]2O[C@](O)(C[C@@H](O)C[C@@H](O)[C@H](O)CC[C@@H](O)C[C@@H](O)CC(=O)O[C@H]1C)C[C@H](O)[C@H]2C(=O)O` [Amphotericin B, amphotericin B], the MIC in the data set with C. neoformans (24 h) was 2.5 µg/mL; with A. fumigatus (24 h), 1.25 µg/mL; with C. tropicalis (24 h) it was 1.25 µg/mL; in the data set on C. albicans (24 h) it was under 0.6 µg/mL; in the data set on Rhizopus (24 h) it was 2.5 µg/mL. The “Days to Reach LD50” value with Candida albicans [1] is reported as over 30 days. In addition, the “Survival After 25 Days” value in the data set with Candida albicans [2] is 90%. The “Survival After 15 Days” value in the data set with Candida albicans [2] is given as 50.0%.
In the case of `O=c1ccn([C@@H]2O[C@H](CO)C[C@H]2O)c(=O)[nH]1` [3'-dU], the MIC with C. neoformans (setting [3]) is over 20 µM; with A. fumigatus (setting [4]), over 20 µM; with C. tropicalis (setting [5]) it was over 20 µM; with C. albicans (setting [6]), over 20 µM; with Rhizopus (24 hours, read-out: MIC), over 20 µM.
Turning to `Nc1ccn([C@@H]2O[C@H](CO)C[C@H]2O)c(=O)n1` [3'-dC], the MIC in the data set with C. neoformans (setting [3]) is over 20 µM; in the data set on A. fumigatus (setting [4]), 20 µM; with C. tropicalis (setting [5]), over 20 µM; in the data set with C. albicans (setting [6]), over 20 µM; in the data set with Rhizopus (24 hours, read-out: MIC) it was over 20 µM.

As usually defined, the MIC is the lowest concentration found to suppress growth. For orientation: IC50 means the midpoint of a concentration-inhibition curve.
